Laboratory results published in patent publication US9309248B2, “Azaindolines” (Hoffmann-La Roche Inc., priority 2012, dated 2016).

Assays:
BIR2 domain of XIAP = target: T1, BIR2 domain of XIAP (Homo sapiens, UniProt P98170, C202A/C213G); assay: TR-FRET assay for BIR2 (inhibition of binding of XIAP BIR2 domain to SMAC-derived Peptide A); conditions: 6x Histidine-tagged BIR2 domain (amino acids 124-240 of XIAP) 10 nM, Peptide A 20 nM
T1 construct: 6× Histidine-tagged BIR2 domain, corresponding to amino acids 124-240 of XIAP
T1 sequence (P98170 with tags, fused parts or gaps C202A/C213G): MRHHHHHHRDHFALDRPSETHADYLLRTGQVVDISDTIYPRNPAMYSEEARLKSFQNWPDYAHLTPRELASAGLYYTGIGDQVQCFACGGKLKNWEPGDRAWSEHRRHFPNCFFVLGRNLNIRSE
In short: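 Inhibition of binding of the XIAP BIR2 domain (C202A/C213G) to biotinylated SMAC-derived Peptide A was measured. TR-FRET signal was read after 1 h at room temperature.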

BIR3 domain of XIAP = target: T2, BIR3 domain of XIAP (Homo sapiens, UniProt P98170); assay: TR-FRET assay for BIR3 (inhibition of binding of XIAP BIR3 domain to SMAC-derived Peptide A); conditions: 6x Histidine-tagged BIR3 domain (amino acids 241-356 of XIAP) 10 nM, Peptide A 20 nM
T2 construct: BIR3 domain, corresponding to amino acids 241-356 of XIAP
T2 sequence (P98170 with tags, fused parts or gaps): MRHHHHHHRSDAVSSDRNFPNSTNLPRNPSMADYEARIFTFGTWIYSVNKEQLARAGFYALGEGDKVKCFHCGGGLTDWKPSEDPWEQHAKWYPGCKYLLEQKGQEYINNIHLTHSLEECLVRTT
In short: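 His6-tagged XIAP BIR3 (aa 241-356, 10 nM) was mixed with 20 nM biotinylated SMAC-derived peptide in 50 mM Tris-Cl pH 7.5, 100 mM NaCl, 1 mM DTT, 0.1 mg/mL BSA and incubated 45 min at 37 °C. Eu-streptavidin (1.5 nM) and APC anti-His (15 nM) were added, with TR-FRET read 1 h later at RT. IC50 came from % inhibition over 10 serial concentrations.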

IC50 (BIR2 domain of XIAP) [nM]	IC50 (BIR3 domain of XIAP) [nM]	Structure (SMILES)
14.2	> 54800	CC[C@H](NC)C(=O)N[C@H](C(=O)N1c2ncccc2C[C@H]1C(=O)Nc1c(F)cccc1F)C(C)C [Example 78, (S)-1-[(S)-3-Methyl-2-((S)-2-methylamino-butyrylamino)-butyryl]-2,3-dihydro-1H-pyrrolo[2,3-b]pyridine-2-carboxylic acid (2,6-difluoro-phenyl)-amide]
10400	> 54800	CC[C@H](NC)C(=O)N[C@H](C(=O)N1c2ncccc2C[C@@H]1C(=O)Nc1ccccc1)C1CCCCC1 [Example 81, (R)-1-[(S)-2-Cyclohexyl-2-((S)-2-methylamino-butyrylamino)-acetyl]-2,3-dihydro-1H-pyrrolo[2,3-b]pyridine-2-carboxylic acid phenylamide]
105	> 54800	CC[C@H](NC)C(=O)N[C@H](C(=O)N1c2ncccc2C[C@H]1C(=O)Nc1ccccc1)C1CCCCC1 [Example 82, 1-[(S)-2-Cyclohexyl-2-((S)-2-methylamino-butyrylamino)-acetyl]-2,3-dihydro-1H-pyrrolo[2,3-b]pyridine-2-carboxylic acid phenylamide]
69.1	> 54800	CC[C@H](NC)C(=O)N[C@H](C(=O)N1c2ncccc2C[C@H]1C(=O)Nc1ccccc1)C(C)C [Example 85, (S)-1-[(S)-3-Methyl-2-((S)-2-methylamino-butyrylamino)-butyryl]-2,3-dihydro-1H-pyrrolo[2,3-b]pyridine-2-carboxylic acid phenylamide]
65.6	> 54800	[2H]C([2H])([2H])N[C@@H](CC)C(=O)N[C@H](C(=O)N1c2ncccc2C[C@H]1C(=O)Nc1ccccc1)C(C)C [Example 86, (S)-1-[(S)-3-Methyl-2-((S)-2-(d3-methyl)amino-butyrylamino)-butyryl]-2,3-dihydro-1H-pyrrolo[2,3-b]pyridine-2-carboxylic acid phenylamide]
234	> 54800	CCN[C@@H](C)C(=O)N[C@H](C(=O)N1c2ncccc2C[C@H]1C(=O)Nc1ccccc1)C(C)C [Example 87, (S)-1-[(S)-2-((S)-2-Ethylamino-propionylamino)-3-methyl-butyryl]-2,3-dihydro-1H-pyrrolo[2,3-b]pyridine-2-carboxylic acid phenylamide]
211	> 54800	CCN[C@@H](CC)C(=O)N[C@H](C(=O)N1c2ncccc2C[C@H]1C(=O)Nc1ccccc1)C(C)C [Example 88, (S)-1-[(S)-2-((S)-2-Ethylamino-butyrylamino)-3-methyl-butyryl]-2,3-dihydro-1H-pyrrolo[2,3-b]pyridine-2-carboxylic acid phenylamide]

Second part, the molecule before the results:

Structure (SMILES)	IC50 (BIR2 domain of XIAP) [nM]	IC50 (BIR3 domain of XIAP) [nM]
CNC(=O)c1ccc(NC(=O)[C@@H]2Cc3cccnc3N2C(=O)[C@@H](NC(=O)[C@H](C)NC)C(C)C)c(F)c1 [Example 64, (S)-1-[(S)-3-Methyl-2-((S)-2-methylamino-propionylamino)-butyryl]-2,3-dihydro-1H-pyrrolo[2,3-b]pyridine-2-carboxylic acid (2-fluoro-4-methylcarbamoyl-phenyl)-amide]	59.6	> 54800
CN[C@@H](C)C(=O)N[C@H](C(=O)N1c2ncccc2C[C@H]1C(=O)Nc1ccc(F)cc1F)C(C)C [Example 65, (S)-1-[(S)-3-Methyl-2-((S)-2-methylamino-propionylamino)-butyryl]-2,3-dihydro-1H-pyrrolo[2,3-b]pyridine-2-carboxylic acid (2,4-difluoro-phenyl)-amide]	35.1	> 54800
CN[C@@H](C)C(=O)N[C@H](C(=O)N1c2ncccc2C[C@H]1C(=O)Nc1nc(C)cs1)C(C)C [Example 66, (S)-1-[(S)-3-Methyl-2-((S)-2-methylamino-propionylamino)-butyryl]-2,3-dihydro-1H-pyrrolo[2,3-b]pyridine-2-carboxylic acid (4-methyl-thiazol-2-yl)-amide]	496	> 54800
CN[C@@H](C)C(=O)N[C@H](C(=O)N1c2ncccc2C[C@H]1C(=O)Nc1ncc(C)s1)C(C)C [Example 67, (S)-1-[(S)-3-Methyl-2-((S)-2-methylamino-propionylamino)-butyryl]-2,3-dihydro-1H-pyrrolo[2,3-b]pyridine-2-carboxylic acid (5-methyl-thiazol-2-yl)-amide]	92.6	> 54800
CN[C@@H](C)C(=O)N[C@H](C(=O)N1c2ncccc2C[C@H]1C(=O)Nc1ccncc1F)C(C)C [Example 69, (S)-1-[(S)-3-Methyl-2-((S)-2-methylamino-propionylamino)-butyryl]-2,3-dihydro-1H-pyrrolo[2,3-b]pyridine-2-carboxylic acid (3-fluoro-pyridin-4-yl)-amide]	105	> 54800
CN[C@@H](C)C(=O)N[C@H](C(=O)N1c2ncccc2C[C@H]1C(=O)Nc1c(F)cccc1Cl)C(C)C [Example 70, (S)-1-[(S)-3-Methyl-2-((S)-2-methylamino-propionylamino)-butyryl]-2,3-dihydro-1H-pyrrolo[2,3-b]pyridine-2-carboxylic acid (2-chloro-6-fluoro-phenyl)-amide]	21.5	> 54800
CN[C@@H](C)C(=O)N[C@H](C(=O)N1c2ncccc2C[C@H]1C(=O)Nc1c(C)cccc1Cl)C(C)C [Example 71, (S)-1-[(S)-3-Methyl-2-((S)-2-methylamino-propionylamino)-butyryl]-2,3-dihydro-1H-pyrrolo[2,3-b]pyridine-2-carboxylic acid (2-chloro-6-methyl-phenyl)-amide]	19.2	> 54800
CN[C@@H](C)C(=O)N[C@H](C(=O)N1c2ncccc2C[C@H]1C(=O)Nc1c(Cl)cc(Cl)cc1Cl)C(C)C [Example 72, (S)-1-[(S)-3-Methyl-2-((S)-2-methylamino-propionylamino)-butyryl]-2,3-dihydro-1H-pyrrolo[2,3-b]pyridine-2-carboxylic acid (2,4,6-trichloro-phenyl)-amide]	13.7	> 54800
CN[C@@H](C)C(=O)N[C@H](C(=O)N1c2ncccc2C[C@H]1C(=O)Nc1c(F)cccc1C(F)(F)F)C(C)C [Example 73, (S)—N-(2-fluoro-6-(trifluoromethyl)phenyl)-1-((S)-3-methyl-2-((S)-2-(methylamino)propanamido)butanoyl)-2,3-dihydro-1H-pyrrolo[2,3-b]pyridine-2-carboxamide]	69.1	> 54800
CN[C@@H](C)C(=O)N[C@H](C(=O)N1c2ncccc2C[C@H]1C(=O)Nc1c(Cl)cccc1Cl)C(C)C [Example 74, (S)-1-[(S)-3-Methyl-2-((S)-2-methylamino-propionylamino)-butyryl]-2,3-dihydro-1H-pyrrolo[2,3-b]pyridine-2-carboxylic acid (2,6-dichloro-phenyl)-amide]	16.6	> 54800
CN[C@@H](C)C(=O)N[C@H](C(=O)N1c2ncccc2C[C@H]1C(=O)Nc1c(Cl)cccc1C(F)(F)F)C(C)C [Example 75, (S)-1-[(S)-3-Methyl-2-((S)-2-methylamino-propionylamino)-butyryl]-2,3-dihydro-1H-pyrrolo[2,3-b]pyridine-2-carboxylic acid (2-chloro-6-trifluoromethyl-phenyl)-amide]	57.5	> 54800
CCN[C@@H](C)C(=O)N[C@H](C(=O)N1c2ncccc2C[C@H]1C(=O)Nc1ccccc1)C1CCCCC1 [Example 76, (S)-1-[(S)-2-Cyclohexyl-2-((S)-2-ethylamino-propionylamino)-acetyl]-2,3-dihydro-1H-pyrrolo[2,3-b]pyridine-2-carboxylic acid phenylamide]	353	> 54800
CCN[C@@H](C)C(=O)N[C@H](C(=O)N1c2ncccc2C[C@H]1C(=O)Nc1c(F)cccc1F)C(C)C [Example 77, (S)-1-[(S)-2-((S)-2-Ethylamino-propionylamino)-3-methyl-butyryl]-2,3-dihydro-1H-pyrrolo[2,3-b]pyridine-2-carboxylic acid (2,6-difluoro-phenyl)-amide]	46.2	> 54800
CN[C@@H](C)C(=O)N[C@H](C(=O)N1c2ncccc2C[C@@H]1C(=O)Nc1ccccc1)C1CCCCC1 [Example 79, (R)-1-[(S)-2-Cyclohexyl-2-((S)-2-methylamino-propionylamino)-acetyl]-2,3-dihydro-1H-pyrrolo[2,3-b]pyridine-2-carboxylic acid phenylamide]	> 54800	> 54800
CN[C@@H](C)C(=O)N[C@H](C(=O)N1c2ncccc2C[C@H]1C(=O)Nc1ccccc1)C1CCCCC1 [Example 80, (S)-1-[(S)-2-Cyclohexyl-2-((S)-2-methylamino-propionylamino)-acetyl]-2,3-dihydro-1H-pyrrolo[2,3-b]pyridine-2-carboxylic acid phenylamide]	117	> 54800
[2H]C([2H])([2H])N[C@@H](CC)C(=O)N[C@H](C(=O)N1c2ncccc2C[C@H]1C(=O)Nc1ccccc1)C1CCCCC1 [Example 83, 1-[(S)-2-Cyclohexyl-2-((S)-2-(d3-methyl)amino-butyrylamino)-acetyl]-2,3-dihydro-1H-pyrrolo[2,3-b]pyridine-2-carboxylic acid phenylamide]	52.8	> 54800
